Test results published in patent US12018027B2, “Macrocyclic derivatives acting as XIa factor inhibitor” (CHINA RESOURCES BIOPHARMACEUTICAL COMPANY LIMITED, priority 2019, dated 2024).

Legend:
Human Factor XIa = Human Factor XIa (Homo sapiens (Human), UniProt P03951); experiment: Screening assay for inhibitory activity against enzyme hFXIa (human factor XIa); type: biochemical; details: substrate S-2366, pH 7.4, 37° C., absorbance 405 nm
Description: 1. Screening Assay for Inhibitory Activity against Enzyme hFXIa (Human Factor XIa)
To Test the Inhibitory Activity of the Compounds Disclosed herein Against Human Factor XIa
100 mM Tris-HCl (Sigma, Cat. No.: T2663, Lot No.: SLBG2775)
Enzyme: Human Factor XIa (Abcam, Cat No.: ab62411), total amount of 50 μg; dissolved in assay buffer and packaged.
3) Instruments and consumables
SpectraMax 340PC multifunctional microplate reader (Molecular Devices)
384-well black transparent reaction plate (Corning, Cat. No.: 3712)
Echo liquid workstation (Labcyte)
A 384-well polypropylene compound plate (Labcyte-P-05525) was used in Echo
A 384 shallow-well polypropylene compound plate (Labcyte-LP-0200, 2.5-12 μL) was used in Echo
Mutidrop automatic dispenser (Thermo Scientific)
Mutidrop consumables (Thermo Scientific-24073290)
Test compounds were each dissolved in DMSO to prepare a 10 mM solution and stored in a nitrogen cabinet.
1) Preparation for compounds
All test compounds were prepared using Echo, subjected to gradient dilution and transferred to a 384-well reaction plate at 100 nL. The reference compound and the test samples, with an initial concentration of 200 μM, were subjected to 3-fold dilution to get 10 concentrations (the final concentration was 1 μM). To high signal wells were added DMSO, and to low signal wells were added 100 μM reference compound. Reference can be made to the sample distribution for distributions of samples and control.
1) Preparation for enzyme human factor XIa
Enzyme human factor XIa was diluted to 0.5 μg/mL with assay buffer.
3) Preparation for substrate S-2306
S-2306 was prepared at a concentration of 1 mM using the assay buffer.
4) 10 μL of 0.5 μg/mL enzyme human factor XIa was added to the reaction plate using a Mutidrop automatic dispenser and the final concentration was 5 ng/well.
5) 10 μL of 1 mM S-2306 was added to the reaction plate using a Mutidrop automatic dispenser and the final concentration was 0.5 mM.
6) Centrifugation was performed at 1000 rpm for 10 s.
7) The reaction plate was incubated in SpectraMax 340PC at 37° C. for 10 min and the absorbance was measured at 405 nm.
8) Data were analyzed using GraphPad Prism 5.0.
% inhibition rate=100%×[1—(sample reading—mean of low signal wells)/(mean of high signal wells—mean of low signal wells)]
IC50 was analyzed using […]:
Y=Bottom+(Top−Bottom)/(1+10^((LogIC50−X)*Hill Slope))
Y is % inhibition rate and X is the logarithm of the sample concentration.

human plasma = experiment: Human plasma in vitro aPTT (activated partial thromboplastin time); type: biochemical
Description: 2. Testing of Human Plasma in vitro aPTT (Activated Partial Thromboplastin Time)
To test the anticoagulant effect of the compounds disclosed herein against human plasma in vitro
1) Plasma: fresh human venous blood was mixed well with 0.109 M sodium citrate at a ratio of 9:1, and then the mixture was centrifuged at 3000 rpm for 15 min. The upper plasma was collected and tested within 2-5 h.
2) Reagents: aPTT reagent (activated partial thromboplastin time kit, mindray), PT reagent (prothrombin time kit, mindray), and calcium chloride solution.
3) Instruments: coagulometer (Beijing Precil, C2000-4).
Test compounds were each dissolved in DMSO to prepare a 10 mM stock solution. The plasma was serially diluted to 400 μM, 200 μM, 100 μM, 50 μM, 25 μM, 12.5 μM, 6.25 μM, 3.125 μM, 1.563 μM, 0.781 μM, 0.390 μM and 0.195 μM with the 10 mM stock solution of each compound, and the blank control was 100% DMSO. The reagents, plasma and compounds were placed at corresponding positions in a coagulometer to detect the aPTT and PT of the compounds.
The concentrations of compounds corresponding to aPTT2× and PT2× (i.e., aPTT and PT of 2-fold blank control) were calculated by Prism curve fitting and the results are shown in Table 2 below: […]

Pharmacokinetics in rats = type: in vivo; details: male SD rats
Description: 3. Pharmacokinetics in Rats
To determine the pharmacokinetic parameters of the compounds disclosed herein in rats
1) Experimental drug: compound 1-2;
2) Experimental animals: 4 male SD rats aged 7-9 weeks, randomly divided into 2 groups, 2 rats for each group;
3) Drug preparation: a proper amount of the drug was weighed out and dissolved in a mixed solvent of DMAC:solutol:water=10:10:80 to prepare two solutions of 0.2 mg/mL and 0.5 mg/mL, respectively;
Animals in group 1 were administered with the 0.2 mg/mL drug at a dose of 0.5 mg/kg by single injection via the tail vein, and animals in group 2 were administered with the 0.5 mg/mL compound at a dose of 3 mg/kg by gavage. Animal plasma samples were collected 0.0833 (only the tail vein injection group), 0.25, 0.5, 1, 2, 4, 6, 8 and 24 h after administration. The drug concentration in plasma samples was determined using LC-MS/MS method, and the kinetic parameters of the test drug are shown in Table 3: […]

Chain of Human Factor XIa (P03951 388-625): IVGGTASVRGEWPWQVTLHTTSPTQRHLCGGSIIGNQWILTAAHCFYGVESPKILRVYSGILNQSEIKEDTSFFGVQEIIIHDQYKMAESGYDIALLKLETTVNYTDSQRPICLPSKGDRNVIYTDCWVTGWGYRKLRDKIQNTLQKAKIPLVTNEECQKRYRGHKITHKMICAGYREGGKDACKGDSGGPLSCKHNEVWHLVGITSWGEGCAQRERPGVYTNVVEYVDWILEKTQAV
Chain of Human Factor XIa (P03951 19-387 partner): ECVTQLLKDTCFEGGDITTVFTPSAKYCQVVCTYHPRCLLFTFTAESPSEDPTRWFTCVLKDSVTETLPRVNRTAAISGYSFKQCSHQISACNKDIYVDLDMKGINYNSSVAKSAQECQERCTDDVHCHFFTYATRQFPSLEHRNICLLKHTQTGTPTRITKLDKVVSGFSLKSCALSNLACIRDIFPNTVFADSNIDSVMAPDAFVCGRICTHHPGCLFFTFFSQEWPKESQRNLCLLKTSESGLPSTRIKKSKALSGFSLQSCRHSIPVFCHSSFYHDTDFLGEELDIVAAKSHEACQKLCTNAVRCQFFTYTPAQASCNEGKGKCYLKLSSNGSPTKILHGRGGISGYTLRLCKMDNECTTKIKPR

Structure (SMILES) | IC50 (Human Factor XIa) [nM] | aPTT2× (concentration giving aPTT of 2-fold blank control) (human plasma) [µM] | further results
C[C@@H]1CCC[C@@H](c2ccc(-c3cc(Cl)ccc3-n3cc(C(F)F)nn3)oc2=O)c2cc(ccn2)-c2c(cnn2C(F)F)NC1=O (single isomer, unassigned) [Compound 3-1] | 3.81 | 1.37 | 
CCOc1cn(-c2ccc(Cl)cc2-c2ccc([C@@H]3CCC[C@@H](C)C(=O)Nc4cnn(C(F)F)c4-c4ccnc3c4)c(=O)o2)nn1 (single isomer, unassigned) [Compound 6-2] | 20.4 |  | 
C[C@@H]1CCC[C@H](c2ccc(-c3cc(Cl)ccc3-n3ccnn3)oc2=O)c2cc(ccn2)-c2c(cnn2C(F)F)NC1=O [Compound 2-2] | 10.7 |  | 
C[C@@H]1CCC[C@@H](c2ccc(-c3cc(Cl)ccc3-n3cc(Cl)nn3)oc2=O)c2cc(ccn2)-c2c(cnn2C(F)F)NC1=O (single isomer, unassigned) [Compound 1-2] | 3.9 | 0.87 | Bioavailability F (Pharmacokinetics in rats; gavage 3 mg/kg vs tail vein injection 0.5 mg/kg): 37.1%; Area under curve AUC (Pharmacokinetics in rats; gavage, 3 mg/kg): 5.205 µM·h; Time of peak concentration T1/2 (Pharmacokinetics in rats; gavage, 3 mg/kg): 3 h; Cmax (Pharmacokinetics in rats; gavage, 3 mg/kg, read-out: Peak concentration Cmax): 986 nM; Area under curve AUC (Pharmacokinetics in rats; tail vein injection, 0.5 mg/kg): 2.339 µM·h; Clearance Cl (Pharmacokinetics in rats; tail vein injection, 0.5 mg/kg): 5.65 mL/min/kg; Half life T1/2 (Pharmacokinetics in rats; tail vein injection, 0.5 mg/kg): 1.04 h; Volume of distribution Vd (Pharmacokinetics in rats; tail vein injection, 0.5 mg/kg): 0.533 L/kg; C0 (Pharmacokinetics in rats; tail vein injection, 0.5 mg/kg, read-out: Initial concentration C0): 1800 nM
C[C@H]1CCC[C@@H](c2ccc(-c3cc(Cl)ccc3-n3cc(Cl)nn3)oc2=O)c2cc(ccn2)-c2c(cnn2C(F)F)NC1=O (single isomer, unassigned) [Compound 1-4] | 34.1 |  | 
C[C@@H]1CCC[C@@H](c2ccc(-c3cc(Cl)ccc3-n3cc(C4CC4)nn3)oc2=O)c2cc(ccn2)-c2c(cnn2C(F)F)NC1=O (single isomer, unassigned) [Compound 4-1] | 21.7 |  | 
C[C@@H]1CCC[C@@H](c2ccc(-c3cc(Cl)ccc3-n3ccnn3)oc2=O)c2cc(ccn2)-c2c(cnn2C(F)F)NC1=O [Compound 2-1] | 3.39 | 0.65 | 
C[C@@H]1CCC[C@@H](c2ccc(-c3cc(Cl)ccc3-n3cc(Cl)nn3)n(C)c2=O)c2cc(ccn2)-c2c(cnn2C(F)F)NC1=O (single isomer, unassigned) [Compound 5-1] | 8.22 |  | 
